In brackets after ≈: the same amount, converted by molar mass. Where two headings read alike, the source gives them in different places. Blank lines part the entries; values can stand above or below the molecule they belong to.
Assays:
[1] = test system: Helicobacter pylori 11637 [幽门螺旋杆菌(11637)]; assay: MIC determination by two-fold (倍半) dilution on MH agar, single drugs and mixed drugs, H. pylori 11637; format: cell-based; settings: for MIC: Helicobacter pylori
[2] = target: cytochrome P450 isoform CYP2D6 [细胞色素P450亚型CYP2D6] (Homo sapiens, UniProt P10635); settings: in words; background; cited from earlier work
Chain of cytochrome P450 isoform CYP2D6 [细胞色素P450亚型CYP2D6] (P10635 whole entry, canonical isoform): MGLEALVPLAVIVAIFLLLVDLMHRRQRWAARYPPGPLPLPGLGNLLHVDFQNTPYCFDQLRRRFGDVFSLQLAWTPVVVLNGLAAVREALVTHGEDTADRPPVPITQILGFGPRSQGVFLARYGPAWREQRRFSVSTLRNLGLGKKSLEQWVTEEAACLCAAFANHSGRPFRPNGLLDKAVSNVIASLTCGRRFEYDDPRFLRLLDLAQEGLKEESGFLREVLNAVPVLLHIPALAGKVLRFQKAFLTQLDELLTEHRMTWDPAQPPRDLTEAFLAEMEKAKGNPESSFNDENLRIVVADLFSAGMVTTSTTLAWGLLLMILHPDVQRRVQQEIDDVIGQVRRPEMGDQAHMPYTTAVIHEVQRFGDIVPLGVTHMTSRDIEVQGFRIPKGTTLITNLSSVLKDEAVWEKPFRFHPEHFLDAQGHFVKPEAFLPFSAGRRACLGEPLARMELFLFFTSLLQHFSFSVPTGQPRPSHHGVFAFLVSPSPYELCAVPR

BACE1 = BACE1 (Homo sapiens, UniProt P56817); settings: in words; background; cited from earlier work
Chain of BACE1 (P56817 46-501, species assumed): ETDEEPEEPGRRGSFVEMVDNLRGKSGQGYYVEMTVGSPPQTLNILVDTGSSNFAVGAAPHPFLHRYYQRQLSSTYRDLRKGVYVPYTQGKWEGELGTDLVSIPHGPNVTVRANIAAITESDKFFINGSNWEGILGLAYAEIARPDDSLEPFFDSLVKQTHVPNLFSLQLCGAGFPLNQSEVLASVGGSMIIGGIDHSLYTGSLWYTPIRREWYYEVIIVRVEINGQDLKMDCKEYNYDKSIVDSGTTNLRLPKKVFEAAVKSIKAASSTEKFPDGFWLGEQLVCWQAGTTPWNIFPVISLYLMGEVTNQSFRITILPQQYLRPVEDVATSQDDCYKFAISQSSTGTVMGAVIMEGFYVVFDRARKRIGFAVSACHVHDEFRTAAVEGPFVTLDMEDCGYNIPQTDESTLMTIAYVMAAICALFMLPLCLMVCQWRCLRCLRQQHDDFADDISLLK

aldose reductase [醛糖还原酶] = aldose reductase [醛糖还原酶] (Homo sapiens, UniProt P15121); settings: in words; background; cited from earlier work
α receptor [α受体] = settings: in words; background; cited from earlier work
[3] = in words, background; cited from earlier work
[4] = drug alone, H. pylori 11637, MH agar, 85%N2, 10%CO2, 5%O2, 48~72h, read-out: MIC

Compound: COc1ccc2cc3[n+](cc2c1OC)CCc1cc2c(cc1-3)OCO2.[Cl-] [BBR, 小檗碱盐酸盐]
MIC ([1]; 72 h): 50 µg/mL | synergistic effect ([1]; in words, combined with omeprazole (奥美拉唑), from table 1): 有一定的协同作用

Compound: COc1cc2c(cc1OC)-c1cc3ccc4c(c3c[n+]1CC2)OCO4 [e-BBR, 表小檗碱]
MIC [1, 4]: 100 µg/mL | anti-Hp activity ([1]; in words, compared with berberine (小檗碱), from table 1): 低于小檗碱 | inhibitory activity on CYP2D6 [2]: 较强的抑制活性 | BACE1 inhibitory activity (BACE1): 非竞争性BACE1抑制活性 | inhibition of aldose reductase activity (aldose reductase [醛糖还原酶]): 抑制醛糖还原酶活性 | α receptor blocking effect (α receptor [α受体]): α受体阻断作用 | in vitro hypoglycaemic activity [3]: 体外降血糖活性

Compound: CC[C@H]1OC(=O)[C@H](C)[C@@H](O[C@H]2C[C@@](C)(OC)[C@@H](O)[C@H](C)O2)[C@H](C)[C@@H](O[C@@H]2O[C@H](C)C[C@H](N(C)C)[C@H]2O)[C@](C)(OC)C[C@@H](C)C(=O)[C@H](C)[C@@H](O)[C@]1(C)O [克, 克拉霉素]
MIC [1, 4]: 0.1 µg/mL (≈ 0.134 µM)

Compound: COc1ccc2[nH]c([S+]([O-])Cc3ncc(C)c(OC)c3C)nc2c1 (stereo not drawn) [奥, 奥美拉唑]
MIC [1, 4]: 100 µg/mL (≈ 289 µM)

More lines, in order of falling MIC [1, 4], values ahead:

MIC [1, 4]: 3.1 µg/mL (≈ 8.58 µM)
Compound: C[C@H]1COc2c(N3CCN(C)CC3)c(F)cc3c(=O)c(C(=O)O)cn1c23 [左, 左氧氟沙星]

MIC [1, 4]: 1.56 µg/mL (≈ 6.93 µM)
Compound: O=C1OCCN1/N=C/c1ccc([N+](=O)[O-])o1 [呋, 呋喃唑酮]

MIC [1, 4]: 1.56 µg/mL (≈ 9.11 µM)
Compound: Cc1ncc([N+](=O)[O-])n1CCO [甲, 甲硝唑]

MIC [1, 4]: 0.05 µg/mL (≈ 0.137 µM)
Compound: CC1(C)S[C@@H]2[C@H](NC(=O)[C@H](N)c3ccc(O)cc3)C(=O)N2[C@H]1C(=O)O [阿, 阿莫西林]

— patent CN111686108A, “表小檗碱在制备抗幽门螺旋杆菌感染药物中的应用” (Southwest University, priority 2020, dated 2020)
